ChEMBL document CHEMBL1156027, “Identification of methysticin as a potent and non-toxic NF-kappaB inhibitor from kava, potentially responsible for kava's chemopreventive activity” (Bioorg Med Chem Lett, 2009)
Values after ≈ are worked out from the molar mass of the structure shown. Active and inactive are the calls of the source. No cut-off for these calls is given here.

Tests used:
[1] = Inhibition of TNF-alpha-induced NF-kappaB expressed in human A549 cells treated 1 hr after TNFalpha challenge measured after 6 hrs by luciferase reporter gene assay; format: cell-based
[2] = Hepatotoxicity against mouse Hepa-1c1c7 cells after 48 hrs by celltiter blue assay; format: toxicity, cell-based
[3] = tested on: CCRF-CEM; experiment: Toxicity against human CCRF-CEM cells after 48 hrs by celltiter blue assay; format: cell-based
[4] = tested on: A549; experiment: Inhibition of NF-kappaB expressed in human A549 cells assessed as suppression of TNF-alpha-induced IKKalpha level at 25 uM after 7 hrs by Western blotting; format: cell-based
[5] = tested on: A549; experiment: Inhibition of NF-kappaB expressed in human A549 cells assessed as suppression of TNF-alpha-induced p65 level at 25 uM after 7 hrs by Western blotting; format: cell-based
[6] = tested on: A549; experiment: […] against human A549 cells after 48 hrs by celltiter blue assay; format: toxicity, cell-based; settings: a549, 48 h
[7] = tested on: A549; experiment: Inhibition of NF-kappaB expressed in human A549 cells assessed as prevention of TNF-alpha-induced IkappaBalpha degradation level at 25 uM after 7 hrs by Western blotting; format: cell-based
[8] = tested on: A549; experiment: Inhibition of NF-kappaB expressed in human A549 cells assessed as suppression of TNF-alpha-induced COX2 level at 25 uM after 7 hrs by Western blotting; format: cell-based
[9] = tested on: HL-60; experiment: Toxicity against human HL60 cells after 48 hrs by celltiter blue assay; format: cell-based; settings: hl-60, 48 h

## COC1=CC(=O)O[C@@H](CCc2ccc3c(c2)OCO3)C1 [DIHYDROMETHYSTICIN]
[1]
  IC50: 20 µg/mL (≈ 72.4 µM)
[2]
  IC50 at 48 h: 313 µg/mL (≈ 1130 µM)

## COc1ccc(/C=C/C(=O)c2c(O)cc(OC)cc2OC)cc1 [FLAVOKAWAIN A]
[1]
  IC50: 11.6 µg/mL (≈ 36.9 µM)
[2]
  IC50 at 48 h: 13.8 µg/mL (≈ 43.9 µM)

## COc1cc(/C=C/c2ccccc2)oc(=O)c1 [DESMETHOXYYANGONIN]
[1]
  IC50: 33 µg/mL (≈ 145 µM)
[2]
  IC50 at 48 h: 173 µg/mL (≈ 758 µM)

## COC1=CC(=O)O[C@@H](CCc2ccccc2)C1 [DIHYDROKAWAIN]
[1]
  IC50: 60 µg/mL (≈ 258 µM)
[2]
  IC50 at 48 h: 175 µg/mL (≈ 753 µM)

## COC1=CC(=O)O[C@@H](/C=C/c2ccc3c(c2)OCO3)C1 [METHYSTICIN]
[1]
  IC50: 0.19 µg/mL (≈ 0.693 µM)
[3]
  Activity: Non-toxic
[4]
  inhibition: Active
[5]
  inhibition: Active
[2]
  IC50 at 48 h: 392 µg/mL (≈ 1430 µM)
[6]
  Activity: Non-toxic
[7]
  inhibition: Active
[8]
  inhibition: Active
[9]
  Activity: Non-toxic

## COc1cc(O)c(C(=O)/C=C/c2ccc(O)cc2)c(OC)c1 [FLAVOKAWAIN C]
[1]
  IC50: 8.1 µg/mL (≈ 27 µM)
[2]
  IC50 at 48 h: 9.8 µg/mL (≈ 32.6 µM)

## COC1=CC(=O)O[C@@H](/C=C/c2ccccc2)C1 [KAVAIN]
[1]
  IC50: 32 µg/mL (≈ 139 µM)
[2]
  IC50 at 48 h: 166 µg/mL (≈ 721 µM)

## COc1cc(O)c(C(=O)/C=C/c2ccccc2)c(OC)c1 [FLAVOKAWAIN B]
[1]
  IC50: 8 µg/mL (≈ 28.1 µM)
[2]
  IC50 at 48 h: 6.6 µg/mL (≈ 23.2 µM)
